Laboratory results reported in patent US20240190880A1 (THE REGENTS OF THE UNIVERSITY OF MICHIGAN, priority 2021, published 2024).
Read-outs that look alike come from different tables or passages of the source.

Target: T1, ER (Homo sapiens, UniProt P03372)
T1 construct: host or cells: T47D and MCF7 human breast cancer cells
T1 sequence (P03372 1-595): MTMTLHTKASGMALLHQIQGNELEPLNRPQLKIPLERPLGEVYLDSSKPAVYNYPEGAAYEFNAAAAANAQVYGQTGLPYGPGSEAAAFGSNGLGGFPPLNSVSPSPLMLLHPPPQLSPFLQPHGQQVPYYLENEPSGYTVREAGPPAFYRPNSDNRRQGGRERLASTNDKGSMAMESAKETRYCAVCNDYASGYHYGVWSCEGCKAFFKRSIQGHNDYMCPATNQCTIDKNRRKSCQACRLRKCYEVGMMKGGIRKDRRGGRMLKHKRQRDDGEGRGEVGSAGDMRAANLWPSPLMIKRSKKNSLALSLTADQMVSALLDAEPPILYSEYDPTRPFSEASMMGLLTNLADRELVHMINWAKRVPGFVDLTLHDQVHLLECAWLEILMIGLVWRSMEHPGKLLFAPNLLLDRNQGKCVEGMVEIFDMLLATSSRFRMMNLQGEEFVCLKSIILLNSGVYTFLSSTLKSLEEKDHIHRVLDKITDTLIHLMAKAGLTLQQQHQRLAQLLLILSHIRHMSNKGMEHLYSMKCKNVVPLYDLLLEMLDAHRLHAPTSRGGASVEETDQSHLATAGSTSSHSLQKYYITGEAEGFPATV
Test: ER degradation activity, in-cell western blot analysis in T47D cells
Format: cell-based
Summary of the method: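 T47D cells cultured in DMEM with 10% FBS, treated with compounds (final 0.5% DMSO) for 16 h. ER level measured by in-cell western with anti-rabbit-680/anti-mouse-800 near-infrared detection. Relative ER percentage calculated against untreated and DMSO-treated wells set as 100%.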

[1] = 16 hours, Table A does not say which cell line (T47D or MCF7), read-out: Potency (DC50)
[2] = compounds 16 hours, Table A does not say whether T47D or MCF7, read-out: Potency (DC50)

Row | SMILES | DC50 [1] | DC50 [2]
1 | C[C@@H]1Cc2c([nH]c3ccccc23)[C@@H](c2c(F)cc(-c3cnc(C(=O)N4CCC(N5Cc6cc7c(cc6C5)C(=O)N(C5CCC(=O)NC5=O)C7=O)CC4)cn3)cc2F)N1CC(F)F (stereo partly drawn) [E 344, 6-(1-(5-(4-((1R,3R)-2-(2,2-difluoroethyl)-3-methyl-2,3,4,9-tetrahydro-1H-pyrido[3,4-b]indol-1-yl)-3,5-difluorophenyl)pyrazine-2-carbonyl)piperidin-4-yl)-2-(2,6-dioxopiperidin-3-yl)-6,7-dihydropyrrolo[3,4-f]isoindole-1,3(2H,5H)-dione] | > 100 nM | 
2 | C[C@@H]1Cc2c([nH]c3ccccc23)[C@@H](c2c(F)cc(C(=O)N3CCC4(CCC(CN5Cc6cc7c(cc6C5)C(=O)N(C5CCC(=O)NC5=O)C7=O)CC4)CC3)cc2F)N1CC(F)F (stereo partly drawn) [E 378, 6-((3-(4-((1R,3R)-2-(2,2-difluoroethyl)-3-methyl-2,3,4,9-tetrahydro-1H-pyrido[3,4-b]indol-1-yl)-3,5-difluorobenzoyl)-3-azaspiro[5.5]undecan-9-yl)methyl)-2-(2,6-dioxopiperidin-3-yl)-6,7-dihydropyrrolo[3,4-f]isoindole-1,3(2H,5H)-dione] | > 100 nM | 
3 | O=C1CCC(N2C(=O)c3cc4c(cc3C2=O)CN(CC2CCC3(CC2)CCN(C(=O)c2ccc([C@@H]5c6ccc(O)cc6CC[C@@H]5c5ccccc5)cc2)CC3)C4)C(=O)N1 (stereo partly drawn) [E 492, 2-(2,6-dioxopiperidin-3-yl)-6-((3-(4-((1R,2S)-6-hydroxy-2-phenyl-1,2,3,4-tetrahydronaphthalen-1-yl)benzoyl)-3-azaspiro[5.5]undecan-9-yl)methyl)-6,7-dihydropyrrolo[3,4-f]isoindole-1,3(2H,5H)-dione] |  | > 100 nM
4 | O=C1CCC(N2C(=O)c3cc4c(cc3C2=O)CN(CC2(F)CN(CC3CCN(c5ccc([C@@H]6c7ccc(O)cc7CC[C@@H]6c6ccccc6)cc5)CC3)C2)C4)C(=O)N1 (stereo partly drawn) [E 212, 2-(2,6-dioxopiperidin-3-yl)-6-((3-fluoro-1-((1-(4-((1R,2S)-6-hydroxy-2-phenyl-1,2,3,4-tetrahydronaphthalen-1-yl)phenyl)piperidin-4-yl)methyl)azetidin-3-yl)methyl)-6,7-dihydropyrrolo[3,4-f]isoindole-1,3(2H,5H)-dione] | > 100 nM | 
5 | O=C1CCC(N2C(=O)c3cc4c(cc3C2=O)CN(CC(=O)N2CCC3(CC2)CC(Oc2ccc([C@@H]5c6ccc(O)cc6CC[C@@H]5c5ccccc5)cc2)C3)C4)C(=O)N1 (stereo partly drawn) [E 220, 2-(2,6-dioxopiperidin-3-yl)-6-(2-(2-(4-((1R,2S)-6-hydroxy-2-phenyl-1,2,3,4-tetrahydronaphthalen-1-yl)phenoxy)-7-azaspiro[3.5]nonan-7-yl)-2-oxoethyl)-6,7-dihydropyrrolo[3,4-f]isoindole-1,3(2H,5H)-dione] | > 100 nM | 
6 | C[C@@H]1Cc2c([nH]c3ccccc23)[C@@H](c2c(F)cc(N3CCC(N4CC(C(=O)N5Cc6cc7c(cc6C5)C(=O)N(C5CCC(=O)NC5=O)C7=O)C4)CC3)cc2F)N1CC(F)F (stereo partly drawn) [E 119, 6-(1-(1-(4-((1R,3R)-2-(2,2-difluoroethyl)-3-methyl-2,3,4,9-tetrahydro-1H-pyrido[3,4-b]indol-1-yl)-3,5-difluorophenyl)piperidin-4-yl)azetidine-3-carbonyl)-2-(2,6-dioxopiperidin-3-yl)-6,7-dihydropyrrolo[3,4-f]isoindole-1,3(2H,5H)-dione] | > 100 nM | 
7 | C[C@@H]1Cc2c([nH]c3ccccc23)[C@@H](c2c(F)cc(N3CCC4(CCN(CC(=O)N5Cc6cc7c(cc6C5)C(=O)N(C5CCC(=O)NC5=O)C7=O)CC4)C3)cc2F)N1CC(F)F (stereo partly drawn) [E 107, 6-(2-(2-(4-((1R,3R)-2-(2,2-difluoroethyl)-3-methyl-2,3,4,9-tetrahydro-1H-pyrido[3,4-b]indol-1-yl)-3,5-difluorophenyl)-2,8-diazaspiro[4.5]decan-8-yl)acetyl)-2-(2,6-dioxopiperidin-3-yl)-6,7-dihydropyrrolo[3,4-f]isoindole-1,3(2H,5H)-dione] | < 10 nM | 
8 | C[C@@H]1Cc2c([nH]c3ccccc23)[C@@H](c2c(F)cc(-c3cnc(C(=O)N4CCC(N5Cc6cc7c(cc6C5)C(=O)N(C5CCC(=O)NC5=O)C7=O)CC4)nc3)cc2F)N1CC(F)F (stereo partly drawn) [E 309, 6-(1-(5-(4-((1R,3R)-2-(2,2-difluoroethyl)-3-methyl-2,3,4,9-tetrahydro-1H-pyrido[3,4-b]indol-1-yl)-3,5-difluorophenyl)pyrimidine-2-carbonyl)piperidin-4-yl)-2-(2,6-dioxopiperidin-3-yl)-6,7-dihydropyrrolo[3,4-f]isoindole-1,3(2H,5H)-dione] | 10 to 100 nM | 
9 | C[C@@H]1Cc2c([nH]c3ccccc23)[C@@H](c2c(F)cc(N3CC(CC(=O)N4CC(N5Cc6cc7c(cc6C5)C(=O)N(C5CCC(=O)NC5=O)C7)C4)C3)cc2F)N1CC(F)F (stereo partly drawn) [E 103, 3-(6-(1-(2-(1-(4-((1R,3R)-2-(2,2-difluoroethyl)-3-methyl-2,3,4,9-tetrahydro-1H-pyrido[3,4-b]indol-1-yl)-3,5-difluorophenyl)azetidin-3-yl)acetyl)azetidin-3-yl)-1-oxo-3,5,6,7-tetrahydropyrrolo[3,4-f]isoindol-2(1H)-yl)piperidine-2,6-dione] | 10 to 100 nM | 
10 | C[C@@H]1Cc2c([nH]c3ccccc23)[C@@H](c2c(F)cc(N3CCC(N4CCC(CN5Cc6cc7c(cc6C5)C(=O)N(C5CCC(=O)NC5=O)C7=O)CC4)C3)cc2F)N1CC(F)F (stereo partly drawn) [E 124, 6-((1-(1-(4-((1R,3R)-2-(2,2-difluoroethyl)-3-methyl-2,3,4,9-tetrahydro-1H-pyrido[3,4-b]indol-1-yl)-3,5-difluorophenyl)pyrrolidin-3-yl)piperidin-4-yl)methyl)-2-(2,6-dioxopiperidin-3-yl)-6,7-dihydropyrrolo[3,4-f]isoindole-1,3(2H,5H)-dione] | > 100 nM | 
11 | O=C1CCC(N2C(=O)c3cc4c(cc3C2=O)CN(C(=O)CN2CCC[C@H](Oc3ccc([C@@H]5c6ccc(O)cc6CC[C@@H]5c5ccc(F)cc5)cc3)C2)C4)C(=O)N1 (mixture of isomers) [E 159, Rac-2-(2,6-dioxopiperidin-3-yl)-6-(2-((S)-3-(4-((1R,2S)-2-(4-fluorophenyl)-6-hydroxy-1,2,3,4-tetrahydronaphthalen-1-yl)phenoxy)piperidin-1-yl)acetyl)-6,7-dihydropyrrolo[3,4-f]isoindole-1,3(2H,5H)-dione] | > 100 nM | 
12 | C[C@@H]1Cc2c([nH]c3ccccc23)[C@@H](c2c(F)cc(N3CCC(CN4CC(C(=O)N5Cc6cc7c(cc6C5)C(=O)N(C5CCC(=O)NC5=O)C7=O)C4)CC3)cc2F)N1CC(F)F (stereo partly drawn) [E 239, 6-(1-((1-(4-((1R,3R)-2-(2,2-difluoroethyl)-3-methyl-2,3,4,9-tetrahydro-1H-pyrido[3,4-b]indol-1-yl)-3,5-difluorophenyl)piperidin-4-yl)methyl)azetidine-3-carbonyl)-2-(2,6-dioxopiperidin-3-yl)-6,7-dihydropyrrolo[3,4-f]isoindole-1,3(2H,5H)-dione] | > 100 nM | 
13 | O=C1CCC(N2C(=O)c3cc4c(cc3C2=O)CN(CC(=O)N2CCC3(CC2)CCN(c2ccc([C@@H]5c6ccc(O)cc6CC[C@@H]5c5ccc(F)cc5)cn2)CC3)C4)C(=O)N1 (mixture of isomers) [E 185, Rac-2-(2,6-dioxopiperidin-3-yl)-6-(2-(9-(5-((1S,2S)-2-(4-fluorophenyl)-6-hydroxy-1,2,3,4-tetrahydronaphthalen-1-yl)pyridin-2-yl)-3,9-diazaspiro[5.5]undecan-3-yl)-2-oxoethyl)-6,7-dihydropyrrolo[3,4-f]isoindole-1,3(2H,5H)-dione] | > 100 nM | 
14 | O=C1CCC(N2Cc3cc4c(cc3C2=O)CN(C2CN(CC3CCN(c5ccc([C@@H]6c7ccc(O)cc7CC[C@@H]6c6ccccc6)cc5)CC3)C2)C4=O)C(=O)N1 (stereo partly drawn) [E 505, 2-(2,6-dioxopiperidin-3-yl)-6-(1-((1-(4-((1R,2S)-6-hydroxy-2-phenyl-1,2,3,4-tetrahydronaphthalen-1-yl)phenyl)piperidin-4-yl)methyl)azetidin-3-yl)-2,3,6,7-tetrahydropyrrolo[3,4-f]isoindole-1,5-dione] |  | > 100 nM
15 | CN(C1CN(c2ccc([C@@H]3c4ccc(O)cc4CC[C@@H]3c3ccccc3)cc2)C1)[C@H]1CC[C@@H](C(=O)N2Cc3cc4c(cc3C2)C(=O)N(C2CCC(=O)NC2=O)C4)CC1 (single isomer, unassigned) [E 356] | > 100 nM | 
16 | O=C1CCC(N2C(=O)c3cc4c(cc3C2=O)CN(C[C@H]2CC[C@@H](N3CC(Nc5ccc([C@@H]6c7ccc(O)cc7CC[C@@H]6c6ccccc6)cc5)C3)CC2)C4)C(=O)N1 (stereo partly drawn) [E 375, 2-(2,6-dioxopiperidin-3-yl)-6-(((1S,4s)-4-(3-((4-((1R,2S)-6-hydroxy-2-phenyl-1,2,3,4-tetrahydronaphthalen-1-yl)phenyl)amino)azetidin-1-yl)cyclohexyl)methyl)-6,7-dihydropyrrolo[3,4-f]isoindole-1,3(2H,5H)-dione] | > 100 nM | 
